The values below come from patent US20050096278A1, “Antibacterial agents” (priority 2003, published 2005).

Converted amounts (≈) assume the structure as drawn.

In series [1] the test system is E. coli MC4100. Description: Antibacterial assay (standard microtitration), MIC. Particulars: Escherichia coli, MC4100; Gram Negative Bacteria; Table 1A; read-out: Minimum Inhibitory Concentrations, E. coli MC4100. The series is classed as cell-based. The method, then:
(§1) Test A—Antibacterial Assays
(§2) The compounds of the present invention were tested against an assortment of Gram-negative and Gram-positive organisms using standard microtitration techniques (Cohen et. al., Antimicrob., 1985;28:766; Heifetz, et. al., Antimicrob., 1974;6:124). The results of the evaluation are shown in Tables 1A and B. In the tables, “—” means no data.

The subject of series [2] is H. influenzae HI-3542. Description: Antibacterial assay (standard microtitration), MIC. Type of series: cell-based. Particulars: Haemophilus influenzae, HI3542; Gram Negative Bacteria; Table 1A; read-out: Minimum Inhibitory Concentrations, H. influenzae HI-3542. The method, then: as §1, §2
Series [3] has as its system M. catarrhalis BC-3531. Description: Antibacterial assay (standard microtitration), MIC. The series is classed as cell-based. Particulars: Moraxella catarrhalis, BC3531; Gram Negative Bacteria; Table 1A; read-out: Minimum Inhibitory Concentrations, M. catarrhalis BC-3531. The method, then:
as §1, §2

Series [4] deals with E. faecalis MGH-2. Kind of series: Antibacterial assay (standard microtitration), MIC. Particulars: Gram Positive Bacteria, Table 1B; for MIC: Enterococcus faecalis, MGH2, read-out: Minimum Inhibitory Concentrations, E. faecalis MGH-2. Type of series: cell-based. The protocol:
as §1, §2

Series [5] concerns S pyogenes C203. Kind of series: Antibacterial assay (standard microtitration), MIC. The series is classed as cell-based. Particulars: Gram Positive Bacteria, Table 1B; for MIC: read-out: Minimum Inhibitory Concentrations, S pyogenes C203. The method, then: as §1, §2
For series [6], the system named is S. aureus UC-76. Kind of series: Antibacterial assay (standard microtitration), MIC. Particulars: Table 1B; for Minimum Inhibitory Concentrations, S. aureus UC-76: Gram Positive Bacteria; for MIC: Staphylococcus aureus, UC76, Gram Positive Bacteria, read-out: Minimum Inhibitory Concentrations, S. aureus UC-76. Type of series: cell-based. The method, then: as §1, §2

Turning to `COc1c(N2CCC(CO)CC2)c(F)cc2c(=O)c(C(=O)O)cn(C3CC3)c12` [drawing 329], the values for the MIC in series [1], in series [2] and in series [3] were 0.125 µg/mL (≈ 0.32 µM), 0.015 µg/mL (≈ 0.0384 µM) and 0.015 µg/mL (≈ 0.0384 µM), respectively.
Regarding `COc1c(N2CCCC(O)(CO)C2)c(F)cc2c(=O)c(C(=O)O)cn(C3CC3)c12` (centres unmarked) [drawing 336], the MIC in series [1] is 1 µg/mL (≈ 2.46 µM); in series [2], 0.03 µg/mL (≈ 0.0738 µM); in series [3] it was 0.5 µg/mL (≈ 1.23 µM).
As for `COc1c(N2CCC(O)C(C)C2)c(F)cc2c(=O)c(C(=O)O)cn(C3CC3)c12` (centres unmarked) [drawing 356], in series [4], the “Minimum Inhibitory Concentrations, E. faecalis MGH-2” value turned out to be 0.125 µg/mL. Further, the “Minimum Inhibitory Concentrations, S pyogenes C203” value in series [5] was found to be 0.25 µg/mL. Moreover, the “Minimum Inhibitory Concentrations, S. aureus UC-76” value in series [6] came out at 0.0008 µg/mL.
On to `COc1c(N2CCC(O)C(C)C2)c(F)cc2c(=O)c(C(=O)O)cn(C3CC3)c12` (centres unmarked) [drawing 332], for which the MIC in series [1] amounted to 0.25 µg/mL (≈ 0.64 µM); in series [2], 0.03 µg/mL (≈ 0.0768 µM); in series [3], 0.03 µg/mL (≈ 0.0768 µM).
As to `Cc1c(N2CCC(O)C(CO)C2)c(F)cc2c(=O)c(C(=O)O)cn(C3CC3)c12` (centres unmarked), the results for the MIC in series [4], in series [5] and in series [6] were 0.25 µg/mL (≈ 0.64 µM), 0.25 µg/mL (≈ 0.64 µM) and 0.015 µg/mL (≈ 0.0384 µM), respectively.
In the case of `COc1c(N2CCC(O)C(C)(C)C2)c(F)cc2c(=O)c(C(=O)O)cn(C3CC3)c12` (centres unmarked) [drawing 350], the MIC came to 0.25 µg/mL (≈ 0.618 µM) in series [4], 0.5 µg/mL (≈ 1.24 µM) in series [5] and 0.015 µg/mL (≈ 0.0371 µM) in series [6].
Regarding `COc1c(N2CCCC(O)C2)c(F)cc2c(=O)c(C(=O)O)cn(C3CC3)c12` (centres unmarked) [drawing 339], the values for the MIC in series [1], in series [2] and in series [3] were 0.125 µg/mL (≈ 0.332 µM), 0.002 µg/mL (≈ 0.00531 µM) and 0.03 µg/mL (≈ 0.0797 µM), respectively.
On to `COc1c(N2CCC(O)(c3ccccc3)CC2)c(F)cc2c(=O)c(C(=O)O)cn(C3CC3)c12` [drawing 352], for which the MIC was 32 µg/mL (≈ 70.7 µM) in series [4], 2 µg/mL (≈ 4.42 µM) in series [5] and 0.25 µg/mL (≈ 0.553 µM) in series [6].
In the same order, the values of `COc1c(N2CCCC(CO)C2)c(F)cc2c(=O)c(C(=O)O)cn(C3CC3)c12` (centres unmarked) [drawing 354] are 0.125 µg/mL (≈ 0.32 µM), 0.25 µg/mL (≈ 0.64 µM) and 0.015 µg/mL (≈ 0.0384 µM).
For the compound `COc1c(N2CCC(C(O)CO)CC2)c(F)cc2c(=O)c(C(=O)O)cn(C3CC3)c12` (centres unmarked), the melting point lay within 200 to 204 °C.
On to `COc1c(N2CCC3(CC2)OCCO3)c(F)cc2c(=O)c(C(=O)O)cn(C3CC3)c12` [drawing 343], for which the MIC in series [4] was determined as 0.25 µg/mL (≈ 0.597 µM); in series [5], 0.25 µg/mL (≈ 0.597 µM); in series [6], 0.015 µg/mL (≈ 0.0358 µM).
In the case of `COc1c(N2CCC(O)C(C)C2)c(F)cc2c(=O)c(C(=O)O)cn(C3CC3)c12` (centres unmarked) [drawing 351], the MIC in series [4] was 0.125 µg/mL (≈ 0.32 µM); in series [5], 0.25 µg/mL (≈ 0.64 µM). Further, in series [6], the “Minimum Inhibitory Concentrations, S. aureus UC-76” value amounted to 0.008 µg/mL.
Consider `Cc1c(N2CCC(O)C(C)(C)C2)c(F)cc2c(=O)c(C(=O)O)cn(C3CC3)c12` (centres unmarked) [drawing 330], for which the MIC in series [1] came to 2 µg/mL (≈ 5.15 µM); in series [2], 0.125 µg/mL (≈ 0.322 µM); in series [3], 0.5 µg/mL (≈ 1.29 µM).
As for `Cc1c(N2CCC(O)C(C)(C)C2)c(F)cc2c(=O)c(C(=O)O)cn(C3CC3)c12` (centres unmarked) [drawing 349], the MIC in series [4] is 8 µg/mL (≈ 20.6 µM); in series [5], 8 µg/mL (≈ 20.6 µM); in series [6], 0.25 µg/mL (≈ 0.644 µM).
As to `COc1c(N2CCCC(O)(CO)C2)c(F)cc2c(=O)c(C(=O)O)cn(C3CC3)c12` (centres unmarked) [drawing 355], the MIC was found to be 1 µg/mL (≈ 2.46 µM) in series [4], 2 µg/mL (≈ 4.92 µM) in series [5] and 0.06 µg/mL (≈ 0.148 µM) in series [6].
As to `Cc1c(N2CCC(CCO)CC2)c(F)cc2c(=O)c(C(=O)O)cn(C3CC3)c12` [drawing 326], the MIC came out at 0.06 µg/mL (≈ 0.154 µM) in series [1], 0.03 µg/mL (≈ 0.0772 µM) in series [2] and 0.015 µg/mL (≈ 0.0386 µM) in series [3].
The like results for `COc1c(N2CCC(C(O)CO)CC2)c(F)cc2c(=O)c(C(=O)O)cn(C3CC3)c12` (centres unmarked) [drawing 327] were, in that order, 0.125 µg/mL (≈ 0.297 µM), 0.03 µg/mL (≈ 0.0714 µM) and 0.06 µg/mL (≈ 0.143 µM).
Take `COc1c(N2CCCC(C(O)CO)C2)c(F)cc2c(=O)c(C(=O)O)cn(C3CC3)c12` (centres unmarked) [drawing 353]: the MIC in series [4] was found to be 8 µg/mL (≈ 19 µM); in series [5] it was 2 µg/mL (≈ 4.76 µM); in series [6], 1 µg/mL (≈ 2.38 µM).
Turning to `COc1c(N2CCC(O)(CO)CC2)c(F)cc2c(=O)c(C(=O)O)cn(C3CC3)c12`, the melting point was 200 to 210 °C (dec.).
On to `Cc1c(N2CCCC(O)C2)c(F)cc2c(=O)c(C(=O)O)cn(C3CC3)c12` (centres unmarked) [drawing 359], for which the figures for the MIC in series [4], in series [5] and in series [6] were 0.125 µg/mL (≈ 0.347 µM), 0.125 µg/mL (≈ 0.347 µM) and 0.015 µg/mL (≈ 0.0416 µM), respectively.
With `Cc1c(N2CCCC(C)(O)C2)c(F)cc2c(=O)c(C(=O)O)cn(C3CC3)c12` (centres unmarked) [drawing 341], the MIC came out at 0.5 µg/mL (≈ 1.34 µM) in series [1], 0.06 µg/mL (≈ 0.16 µM) in series [2] and 0.125 µg/mL (≈ 0.334 µM) in series [3].

By melting point is commonly meant the temperature, or range, at which the solid turns liquid.
